From US20050112607A1, “Rapid and sensitive detection of protein aggregation” (priority 1999, published 2005) come the findings set out here.

Assay [1] in a line: Colloid/colloid linkage via biotin/streptavidin, color change. Type of assay: binding. The note with it: streptavidin added to biotin-SAM colloids. The procedure: A set of gold colloids was derivatized with self-assembled monolayers that incorporated biotin-thiols (SAM forming species included C11, 3 ethylene glycol units, then biotin) along with C16 carboxy-terminated thiols (a mixed SAM). Streptavidin, which has four binding sites for biotin, or a random protein (GST) was added to the colloid solutions.

Assay [2] deals with histidine-tagged RGD-motif-containing peptide. Kind of assay: Colloid/colloid color change assay with RGD-peptide-bound NTA-Ni colloids. It counts as binding. To be noted: 100 ul or 50 ul protein per well, room temperature, after approximately 15 minutes. How it is done:
(§1) 600 microliters colloids, derivatized with a self-assembled monolayer that presents nitrilo tri-acetic acid, NTA (for the capture of histidine-tagged proteins), was mixed with 60 microliters of 500 micromolar histidine-tagged RGD-motif-containing peptide. 600 microliters of a second set of NTA-Ni presenting colloids was mixed with 60 ul of a 500 uM solution of GST, an irrelevant protein, as a negative control. Colloids were spun down and resuspended in phosphate buffer to remove residual unbound protein or peptide. Endostatin and Angiostatin, two proteins implicated in angiogenesis and suspected of binding to regions of vitronectin, such as the RGD peptide, were prepared by dialysis into phoshate-buffered saline solution and then 1:10 dilution into PBS from a stock concentration of 1 mg/mL.
(§2) 400 ul phosphate buffer (pH 7.4), 200 ul either RGD-bound colloids or GST-bound colloids, and either 100 ul endostatin or angiostatin, 50 ul endostatin or angiostatin/50 ul phosphate buffer, or 100 ul phosphate buffer (as a negative control) were added to each well of a crystallization dish. Color change was monitored over time at room temperature. […] The histidine-tagged proteins were then eluted using imidazole, and the samples were analyzed by SDS-PAGE. […]

The target in a further assay is GST (Schistosoma japonicum, UniProt P08515). In words: Colloid/colloid color change assay with GST-bound NTA-Ni colloids (irrelevant protein). Type of assay: binding. The note with it: 100 ul or 50 ul protein per well, room temperature. The procedure:
as §1, §2

In a further assay the target is resin-immobilized GST (Schistosoma japonicum, UniProt P08515). In words: NTA-Ni agarose resin binding, imidazole elution, SDS-PAGE (GST). How it is done:
(§3) 400 ul phosphate buffer (pH 7.4), 200 ul either RGD-bound colloids or GST-bound colloids, and either 100 ul endostatin or angiostatin, 50 ul endostatin or angiostatin/50 ul phosphate buffer, or 100 ul phosphate buffer (as a negative control) were added to each well of a crystallization dish. Color change was monitored over time at room temperature. […] The color change was more pronounced in the well that contained 100 ul endostatin than in the well that contained 50 ul endostatin/50 ul phospate buffer. […] Row A included colloids and angiostatin. Row B included colloids with endostatin. (Rows C and D are empty wells). Columns 1-3 have RGD peptide immobilized on the colloids. […] have an irrelevant protein, GST, immobilized on the colloid. Columns 1 and 4 contain […] of the relevant drug (endostatin or angiostatin). […] The results were verified by gel electrophoresis. The RGD peptide and histidine-tagged GST were bound to a small amount of NTA-Ni agarose resin at saturating concentration. Endostatin was incubated with the resin and allowed to bind to the protein on the resin. The histidine-tagged proteins were then eluted using imidazole, and the samples were analyzed by SDS-PAGE. […] This assay could be easily adapted for screening of drug candidates that either mimic the RGD-binding characteristic of endostatin or bind to the RGD-binding domains on endostatin. […]

Assay [3] concerns resin-immobilized RGD peptide. In words: NTA-Ni agarose resin binding, imidazole elution, SDS-PAGE (RGD peptide). How it is done:
as §3

Sequence of GST (P08515 whole entry): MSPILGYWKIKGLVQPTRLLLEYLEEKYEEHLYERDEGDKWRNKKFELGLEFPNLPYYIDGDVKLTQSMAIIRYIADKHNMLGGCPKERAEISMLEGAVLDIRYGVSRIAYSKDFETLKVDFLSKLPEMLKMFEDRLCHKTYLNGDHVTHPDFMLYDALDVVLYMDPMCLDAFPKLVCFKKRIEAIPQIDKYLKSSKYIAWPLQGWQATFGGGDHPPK
Sequence of resin-immobilized GST (P08515 whole entry): as above

Take Streptavidin: the “Color change of biotin-presenting colloid solution” value in assay [1] is reported as “immediately turned blue”.
Consider angiostatin, for which, in assay [2], the “Color change from red to blue of RGD-peptide-bound colloids” value is “No color change occurred”. For the same substance, the “Color change of GST-bound colloids” value on GST is on record as “No color change occurred”.
On to endostatin, for which, in assay [2], the “Color change from red to blue of RGD-peptide-bound colloids” value is “a color change from red to blue was visible”. At resin-immobilized GST, the “Binding to resin-immobilized GST (SDS-PAGE)” value is “did not bind to the resin-immobilized GST”. Also, the “Color change of GST-bound colloids” value at GST is recorded as “No color change occurred”. In addition, the “Binding to resin-immobilized RGD peptide (SDS-PAGE)” value in assay [3] is “bound to the resin-immobilized RGD peptide”.
